Assay results taken from ChEMBL document CHEMBL3217747, “Discovery and pharmacological characterization of a selective delta opiate receptor antagonist (CP-646,777)” (Medchemcomm, 2011).

What was measured:
[1] = biological target: T1, Delta-type opioid receptor (Homo sapiens, UniProt P41143); test: Displacement of [3H]diprenorphine from human delta opioid receptor expressed in CHO cells by liquid scintillation counting analysis; type: cell-based
[2] = biological target: Mu-type opioid receptor (Homo sapiens, UniProt P35372); test: Displacement of [3H]diprenorphine from human mu opioid receptor expressed in CHO cells by liquid scintillation counting analysis; type: cell-based
Chain of Mu-type opioid receptor (P35372 whole entry): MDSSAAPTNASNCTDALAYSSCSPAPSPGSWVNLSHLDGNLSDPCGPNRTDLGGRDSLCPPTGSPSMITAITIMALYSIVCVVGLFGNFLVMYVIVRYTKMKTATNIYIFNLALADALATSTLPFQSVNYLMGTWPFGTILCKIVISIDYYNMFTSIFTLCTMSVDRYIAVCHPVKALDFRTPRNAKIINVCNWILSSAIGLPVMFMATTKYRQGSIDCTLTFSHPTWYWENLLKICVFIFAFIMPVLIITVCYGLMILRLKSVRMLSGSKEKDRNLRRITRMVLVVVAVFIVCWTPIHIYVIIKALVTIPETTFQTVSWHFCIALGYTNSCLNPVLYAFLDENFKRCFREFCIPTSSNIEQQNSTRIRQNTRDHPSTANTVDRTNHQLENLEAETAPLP

[3] = biological target: Kappa-type opioid receptor (Homo sapiens, UniProt P41145); test: Displacement of [3H]diprenorphine from human kappa opioid receptor expressed in CHO cells by liquid scintillation counting analysis; type: cell-based
Chain of Kappa-type opioid receptor (P41145 whole entry): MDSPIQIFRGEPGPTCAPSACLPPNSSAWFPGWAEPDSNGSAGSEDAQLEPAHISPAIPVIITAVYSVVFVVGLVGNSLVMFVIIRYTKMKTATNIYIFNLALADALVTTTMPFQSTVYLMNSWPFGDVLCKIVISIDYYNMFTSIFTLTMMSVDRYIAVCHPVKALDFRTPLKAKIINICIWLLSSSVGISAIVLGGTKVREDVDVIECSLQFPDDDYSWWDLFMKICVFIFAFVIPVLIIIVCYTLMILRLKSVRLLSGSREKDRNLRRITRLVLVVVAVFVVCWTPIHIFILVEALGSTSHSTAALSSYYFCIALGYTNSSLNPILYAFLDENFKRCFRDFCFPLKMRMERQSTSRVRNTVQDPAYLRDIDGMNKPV

[4] = biological target: T1, Delta-type opioid receptor; test: Antagonist activity at delta opioid receptor (unknown origin) assessed as [35S]-GTPgammaS binding by liquid scintillation counting analysis; type: functional
[5] = In vitro clearance in human liver microsomes; type: ADME; conditions: read-out: CLH
[6] = tested on: MDCK; test: Efflux ratio of apparent permeability across […] in MDCK cells expressing human P-gp; type: ADME, cell-based, Canis lupus familiaris; conditions: dog
[7] = tested on: Brain; test: Ratio of drug uptake from wild type P-gp mouse brain to P-gp deficient mouse brain compound treated subcutaneously; type: ADME; conditions: sc
[8] = Plasma concentration in mouse at 32 mg/kg, sc after 4 hrs; type: ADME, organism-based; set-up: dose 32 mg/kg, route subcutaneous
[9] = Fraction unbound in mouse at 32 mg/kg, sc after 4 hrs; type: ADME, organism-based; set-up: dose 32 mg/kg, route subcutaneous; conditions: in vivo
[10] = tested on: Cerebrospinal fluid; test: Drug uptake in rat cerebrospinal fluid at 32 mg/kg, sc; type: ADME, organism-based; set-up: dose 32 mg/kg, route subcutaneous; conditions: in vivo, read-out: Drug uptake
[11] = tested on: Cerebrospinal fluid; test: Drug uptake in rat cerebrospinal fluid at 10 mg/kg, sc; type: ADME, organism-based; set-up: dose 10 mg/kg, route subcutaneous; conditions: in vivo, read-out: Drug uptake
[12] = species on record: Mus musculus; test: Reversal of SNC-80 induced hypothermia in ICR mouse assessed as rectal temperature; type: functional
[13] = Ratio of ED50 for Reversal of SNC-80 induced hypothermia in ICR mouse over Ki for human delta opioid receptor
[14] = Ratio of plasma concentration in mouse over Ki for human delta opioid receptor; type: ADME, cell-free

T1 sequence (P41143 whole entry): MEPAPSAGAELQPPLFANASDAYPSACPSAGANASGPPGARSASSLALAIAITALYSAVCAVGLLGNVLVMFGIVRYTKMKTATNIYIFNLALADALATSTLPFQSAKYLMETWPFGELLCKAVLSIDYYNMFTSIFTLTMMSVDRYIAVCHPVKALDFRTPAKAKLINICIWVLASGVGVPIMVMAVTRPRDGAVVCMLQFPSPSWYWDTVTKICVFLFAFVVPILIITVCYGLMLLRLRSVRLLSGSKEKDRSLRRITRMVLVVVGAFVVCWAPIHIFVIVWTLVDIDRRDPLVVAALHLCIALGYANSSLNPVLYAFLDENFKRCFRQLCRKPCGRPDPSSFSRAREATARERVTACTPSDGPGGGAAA

Row | Compound | Ki [1] [nM] | Ki [2] [nM] | Ki [3] [nM] | IC50 [4] [nM] | CLint scaled [5] [mL/min/kg] | Ratio [6] | Ratio [7] | concentration at 4 h [8] [nM] | fraction unbound at 4 h [9] | concentration [10] [nM] | concentration [11] [nM] | ED50 [12] [mg/kg] | Ratio [13] | Ratio [14]
1 | CCC[C@@H](C)CN1CCC(c2cccc(O)c2)(c2ncc(C(=O)N(CC)CC)cn2)CC1 | 2 | 830 | 142 | 35 | 48 | 13 | 6.5 | 7500 | 0.3 | 300 | 103 | 3 | 15 | 100
2 | CCCC(C)CN1CCC(c2cccc(C(N)=O)c2)(c2ncc(C(=O)N(CC)CC)cn2)CC1 (stereo not drawn) | 2 | > 890 | 65 | 35 | 13 | 13 |  |  |  |  |  |  |  | 
3 | CCCC(C)CN1CCC(c2ccc(C(=O)N(C)C)cc2)(c2cccc(O)c2)CC1 (stereo not drawn) |  | > 890 |  |  | 80 |  |  |  |  |  |  |  |  | 
4 | CCCC(C)CN1CCC(c2cccc(O)c2)(c2ncc(C(=O)N(CC)CC)cn2)CC1 (stereo not drawn) | 6 | > 890 | > 890 | 21 | 40 | 13 |  |  |  |  |  |  |  | 
